The source made the active and inactive calls.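 How the source made its calls: active means GFP ratio to DMSO above 1.5 or below 0.66; inactive means the rest.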
Tests used:
Experiment in all cases: TOR pathway GFP reporter clone modulation in yeast – S. cerevisiae, GFP-tagged clone panel, flow cytometry (AID 504473);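 further: median GFP fluorescence of the cells measured by high-throughput flow cytometry; test concentration not given here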
[1] = test system: YPR145W; settings: S. cerevisiae GFP-tagged strains, 3 h
[2] = test system: YER081W; settings: S. cerevisiae GFP-tagged strains, 3 h
[3] = test system: YLR185W; settings: S. cerevisiae GFP-tagged strains, 3 h
[4] = test system: YCR002C; settings: S. cerevisiae GFP-tagged strains, 3 h
[5] = test system: YOR063W; settings: S. cerevisiae GFP-tagged strains, 3 h
[6] = test system: YKR093W; settings: S. cerevisiae GFP-tagged strains, 3 h
[7] = test system: YPL150W; settings: S. cerevisiae GFP-tagged strains, 3 h
[8] = test system: YNL142W; settings: S. cerevisiae GFP-tagged strains, 3 h
[9] = test system: YNL112W; settings: S. cerevisiae GFP-tagged strains, 3 h
[10] = test system: YHR141C; settings: S. cerevisiae GFP-tagged strains, 3 h
[11] = test system: YNL214W; settings: S. cerevisiae GFP-tagged strains, 3 h
[12] = test system: YMR307W; settings: S. cerevisiae GFP-tagged strains, 3 h
[13] = test system: YNL068C; settings: S. cerevisiae GFP-tagged strains, 3 h
[14] = test system: YKR039W; settings: S. cerevisiae GFP-tagged strains, 3 h
[15] = test system: YEL063C; settings: S. cerevisiae GFP-tagged strains, 3 h
[16] = test system: YDL205C; settings: S. cerevisiae GFP-tagged strains, 3 h
[17] = test system: YCL064C; settings: S. cerevisiae GFP-tagged strains, 3 h
[18] = test system: YOR173W; settings: S. cerevisiae GFP-tagged strains, 3 h
[19] = test system: YOR038C; settings: S. cerevisiae GFP-tagged strains, 3 h
[20] = test system: YML034W; settings: S. cerevisiae GFP-tagged strains, 3 h
[21] = test system: YIL066C; settings: S. cerevisiae GFP-tagged strains, 3 h
[22] = test system: YBR248C; settings: S. cerevisiae GFP-tagged strains, 3 h
[23] = test system: YER117W; settings: S. cerevisiae GFP-tagged strains, 3 h
[24] = test system: YBR072W; settings: S. cerevisiae GFP-tagged strains, 3 h
[25] = test system: YJL144W; settings: S. cerevisiae GFP-tagged strains, 3 h
[26] = test system: YOR136W; settings: S. cerevisiae GFP-tagged strains, 3 h
[27] = test system: YFR053C; settings: S. cerevisiae GFP-tagged strains, 3 h
[28] = test system: YOL052C-A; settings: S. cerevisiae GFP-tagged strains, 3 h
[29] = test system: YHL021C; settings: S. cerevisiae GFP-tagged strains, 3 h
[30] = test system: YIL051C; settings: S. cerevisiae GFP-tagged strains, 3 h
[31] = test system: YMR120C; settings: S. cerevisiae GFP-tagged strains, 3 h
[32] = test system: YML004C; settings: S. cerevisiae GFP-tagged strains, 3 h
[33] = test system: YLL039C; settings: S. cerevisiae GFP-tagged strains, 3 h
[34] = test system: YOR182C; settings: S. cerevisiae GFP-tagged strains, 3 h
[35] = test system: YPL265W; settings: S. cerevisiae GFP-tagged strains, 3 h
[36] = test system: YLL026W; settings: S. cerevisiae GFP-tagged strains, 3 h
[37] = test system: YGR034W; settings: S. cerevisiae GFP-tagged strains, 3 h
[38] = test system: YHR087W; settings: S. cerevisiae GFP-tagged strains, 3 h
[39] = test system: YGL135W; settings: S. cerevisiae GFP-tagged strains, 3 h
[40] = test system: YFR031C-A; settings: S. cerevisiae GFP-tagged strains, 3 h
[41] = test system: YMR251W-A; settings: S. cerevisiae GFP-tagged strains, 3 h
[42] = test system: YKL119C; settings: S. cerevisiae GFP-tagged strains, 3 h
[43] = test system: YDR453C; settings: S. cerevisiae GFP-tagged strains, 3 h
[44] = test system: YOR375C; settings: S. cerevisiae GFP-tagged strains, 3 h
[45] = test system: YCR005C; settings: S. cerevisiae GFP-tagged strains, 3 h
[46] = test system: YGR019W; settings: S. cerevisiae GFP-tagged strains, 3 h
[47] = test system: YEL071W; settings: S. cerevisiae GFP-tagged strains, 3 h
[48] = test system: YPR184W; settings: S. cerevisiae GFP-tagged strains, 3 h
[49] = test system: YHR018C; settings: S. cerevisiae GFP-tagged strains, 3 h
[50] = test system: YGR121C; settings: S. cerevisiae GFP-tagged strains, 3 h
[51] = test system: YLR109W; settings: S. cerevisiae GFP-tagged strains, 3 h
[52] = test system: YLR058C; settings: S. cerevisiae GFP-tagged strains, 3 h
[53] = test system: YAL061W; settings: S. cerevisiae GFP-tagged strains, 3 h
[54] = test system: YNR001C; settings: S. cerevisiae GFP-tagged strains, 3 h
[55] = test system: YBR208C; settings: S. cerevisiae GFP-tagged strains, 3 h
[56] = test system: YPL131W; settings: S. cerevisiae GFP-tagged strains, 3 h
[57] = test system: YEL007W; settings: S. cerevisiae GFP-tagged strains, 3 h
[58] = test system: YPL111W; settings: S. cerevisiae GFP-tagged strains, 3 h
[59] = test system: YDR382W; settings: S. cerevisiae GFP-tagged strains, 3 h
[60] = test system: YLR237W; settings: S. cerevisiae GFP-tagged strains, 3 h
[61] = test system: YLR142W; settings: S. cerevisiae GFP-tagged strains, 3 h
[62] = target: General amino acid permease AGP1 (Saccharomyces cerevisiae S288c) (UniProt P25376); settings: S. cerevisiae GFP-tagged strains, 3 h, YCL025C
General amino acid permease AGP1 (Saccharomyces cerevisiae S288c), sequence (P25376 whole entry, looked up): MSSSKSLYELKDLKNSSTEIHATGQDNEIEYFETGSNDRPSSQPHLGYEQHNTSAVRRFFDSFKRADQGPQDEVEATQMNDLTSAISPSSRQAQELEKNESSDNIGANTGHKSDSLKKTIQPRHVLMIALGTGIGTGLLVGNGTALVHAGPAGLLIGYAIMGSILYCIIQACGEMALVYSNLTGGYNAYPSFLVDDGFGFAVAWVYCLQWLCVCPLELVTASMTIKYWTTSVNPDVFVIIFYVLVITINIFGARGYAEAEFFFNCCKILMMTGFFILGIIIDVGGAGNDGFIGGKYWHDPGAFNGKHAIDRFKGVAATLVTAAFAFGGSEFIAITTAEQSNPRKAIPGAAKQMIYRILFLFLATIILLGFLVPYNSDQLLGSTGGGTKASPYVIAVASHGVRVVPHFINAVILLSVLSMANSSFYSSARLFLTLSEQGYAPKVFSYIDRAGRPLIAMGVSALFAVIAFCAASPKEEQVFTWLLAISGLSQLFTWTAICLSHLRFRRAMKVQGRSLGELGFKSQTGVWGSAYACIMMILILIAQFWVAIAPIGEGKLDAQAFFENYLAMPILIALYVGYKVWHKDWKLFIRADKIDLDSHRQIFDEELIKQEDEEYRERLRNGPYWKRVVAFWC

[63] = test system: YGL062W; settings: S. cerevisiae GFP-tagged strains, 3 h
[64] = test system: YDL130W; settings: S. cerevisiae GFP-tagged strains, 3 h
[65] = test system: YLR287C-A; settings: S. cerevisiae GFP-tagged strains, 3 h
[66] = test system: YPL220W; settings: S. cerevisiae GFP-tagged strains, 3 h
[67] = test system: YML128C; settings: S. cerevisiae GFP-tagged strains, 3 h
[68] = test system: YIL043C; settings: S. cerevisiae GFP-tagged strains, 3 h
[69] = test system: YDL204W; settings: S. cerevisiae GFP-tagged strains, 3 h
[70] = test system: YGR088W; settings: S. cerevisiae GFP-tagged strains, 3 h
[71] = test system: YGL036W; settings: S. cerevisiae GFP-tagged strains, 3 h
[72] = test system: YER156C; settings: S. cerevisiae GFP-tagged strains, 3 h
[73] = test system: YAL060W; settings: S. cerevisiae GFP-tagged strains, 3 h
[74] = test system: YML063W; settings: S. cerevisiae GFP-tagged strains, 3 h
[75] = test system: YEL060C; settings: S. cerevisiae GFP-tagged strains, 3 h
[76] = test system: YMR105C; settings: S. cerevisiae GFP-tagged strains, 3 h
[77] = test system: YDR399W; settings: S. cerevisiae GFP-tagged strains, 3 h
[78] = test system: YPR132W; settings: S. cerevisiae GFP-tagged strains, 3 h
[79] = test system: YHR144C; settings: S. cerevisiae GFP-tagged strains, 3 h
[80] = test system: YBL087C; settings: S. cerevisiae GFP-tagged strains, 3 h
[81] = test system: YNL015W; settings: S. cerevisiae GFP-tagged strains, 3 h
[82] = test system: YIL052C; settings: S. cerevisiae GFP-tagged strains, 3 h
[83] = test system: YJR148W; settings: S. cerevisiae GFP-tagged strains, 3 h
[84] = test system: YKL086W; settings: S. cerevisiae GFP-tagged strains, 3 h
[85] = test system: YBR139W; settings: S. cerevisiae GFP-tagged strains, 3 h
[86] = test system: YLR367W; settings: S. cerevisiae GFP-tagged strains, 3 h
[87] = test system: YOR371C; settings: S. cerevisiae GFP-tagged strains, 3 h
[88] = test system: YDR070C; settings: S. cerevisiae GFP-tagged strains, 3 h
[89] = test system: YJL056C; settings: S. cerevisiae GFP-tagged strains, 3 h
[90] = test system: YKR094C; settings: S. cerevisiae GFP-tagged strains, 3 h
[91] = test system: YKL103C; settings: S. cerevisiae GFP-tagged strains, 3 h
[92] = test system: YGL147C; settings: S. cerevisiae GFP-tagged strains, 3 h
[93] = test system: YML026C; settings: S. cerevisiae GFP-tagged strains, 3 h
[94] = test system: YER151C; settings: S. cerevisiae GFP-tagged strains, 3 h
[95] = test system: YIL069C; settings: S. cerevisiae GFP-tagged strains, 3 h
[96] = test system: YHR203C; settings: S. cerevisiae GFP-tagged strains, 3 h

CNc1nc(N)c([N+](=O)[O-])c(Nc2cccc(F)c2)n1
GFP ratio to DMSO [1]: 1.98 | GFP ratio to DMSO [2]: 1.07 (inactive) | GFP ratio to DMSO [3]: 0.893 (inactive) | GFP ratio to DMSO [4]: 0.939 (inactive) | GFP ratio to DMSO [5]: 0.919 (inactive) | GFP ratio to DMSO [6]: 4.31 | GFP ratio to DMSO [7]: 0.959 (inactive) | GFP ratio to DMSO [8]: 9.4 | GFP ratio to DMSO [9]: 0.894 (inactive) | GFP ratio to DMSO [10]: 0.925 (inactive) | GFP ratio to DMSO [11]: 0.945 (inactive) | GFP ratio to DMSO [12]: 0.845 (inactive) | GFP ratio to DMSO [13]: 1.09 (inactive) | GFP ratio to DMSO [14]: 4.91 | GFP ratio to DMSO [15]: 1.23 (inactive) | GFP ratio to DMSO [16]: 0.958 (inactive) | GFP ratio to DMSO [17]: 1.15 (inactive) | GFP ratio to DMSO [18]: 1.45 (inactive) | GFP ratio to DMSO [19]: 1.15 (inactive) | GFP ratio to DMSO [20]: 0.944 (inactive) | GFP ratio to DMSO [21]: 1.04 (inactive) | GFP ratio to DMSO [22]: 1.03 (inactive) | GFP ratio to DMSO [23]: 0.434 | GFP ratio to DMSO [24]: 1.53 | GFP ratio to DMSO [25]: 1.39 (inactive) | GFP ratio to DMSO [26]: 1.43 (inactive) | GFP ratio to DMSO [27]: 1.46 (inactive) | GFP ratio to DMSO [28]: 2.48 | GFP ratio to DMSO [29]: 1.99 | GFP ratio to DMSO [30]: 1.3 (inactive) | GFP ratio to DMSO [31]: 0.686 (inactive) | GFP ratio to DMSO [32]: 1.28 (inactive) | GFP ratio to DMSO [33]: 1.49 (inactive) | GFP ratio to DMSO [34]: 0.657 (inactive) | GFP ratio to DMSO [35]: 1.93 | GFP ratio to DMSO [36]: 1.75 | GFP ratio to DMSO [37]: 0.814 (inactive) | GFP ratio to DMSO [38]: 1.64 | GFP ratio to DMSO [39]: 0.899 (inactive) | GFP ratio to DMSO [40]: 0.845 (inactive) | GFP ratio to DMSO [41]: 1.64 | GFP ratio to DMSO [42]: 0.959 (inactive) | GFP ratio to DMSO [43]: 1.5 (inactive) | GFP ratio to DMSO [44]: 1.83 | GFP ratio to DMSO [45]: 4.96 | GFP ratio to DMSO [46]: 1.42 (inactive) | GFP ratio to DMSO [47]: 2.83 | GFP ratio to DMSO [48]: 1.61 | GFP ratio to DMSO [49]: 1.14 (inactive) | GFP ratio to DMSO [50]: 1.38 (inactive) | GFP ratio to DMSO [51]: 1.39 (inactive) | GFP ratio to DMSO [52]: 1.02 (inactive) | GFP ratio to DMSO [53]: 1.57 | GFP ratio to DMSO [54]: 1.57 | GFP ratio to DMSO [55]: 2.34 | GFP ratio to DMSO [56]: 0.93 (inactive) | GFP ratio to DMSO [57]: 0.993 (inactive) | GFP ratio to DMSO [58]: 2.48 | GFP ratio to DMSO [59]: 0.981 (inactive) | GFP ratio to DMSO [60]: 0.775 (inactive) | GFP ratio to DMSO [61]: 0.857 (inactive) | GFP ratio to DMSO [62]: 1.69 | GFP ratio to DMSO [63]: 2.1 | GFP ratio to DMSO [64]: 0.917 (inactive) | GFP ratio to DMSO [65]: 0.753 (inactive) | GFP ratio to DMSO [66]: 1.04 (inactive) | GFP ratio to DMSO [67]: 1.68 | GFP ratio to DMSO [68]: 1.04 (inactive) | GFP ratio to DMSO [69]: 1.33 (inactive) | GFP ratio to DMSO [70]: 1.71 | GFP ratio to DMSO [71]: 0.845 (inactive) | GFP ratio to DMSO [72]: 1.08 (inactive) | GFP ratio to DMSO [73]: 2.27 | GFP ratio to DMSO [74]: 0.897 (inactive) | GFP ratio to DMSO [75]: 1.88 | GFP ratio to DMSO [76]: 1.72 | GFP ratio to DMSO [77]: 0.957 (inactive) | GFP ratio to DMSO [78]: 0.841 (inactive) | GFP ratio to DMSO [79]: 0.778 (inactive) | GFP ratio to DMSO [80]: 0.567 | GFP ratio to DMSO [81]: 1.62 | GFP ratio to DMSO [82]: 0.769 (inactive) | GFP ratio to DMSO [83]: 3.13 | GFP ratio to DMSO [84]: 1.17 (inactive) | GFP ratio to DMSO [85]: 1.12 (inactive) | GFP ratio to DMSO [86]: 0.896 (inactive) | GFP ratio to DMSO [87]: 0.944 (inactive) | GFP ratio to DMSO [88]: 2.45 | GFP ratio to DMSO [89]: 0.886 (inactive) | GFP ratio to DMSO [90]: 0.898 (inactive) | GFP ratio to DMSO [91]: 2.2 | GFP ratio to DMSO [92]: 0.799 (inactive) | GFP ratio to DMSO [93]: 0.557 | GFP ratio to DMSO [94]: 1.03 (inactive) | GFP ratio to DMSO [95]: 0.764 (inactive) | GFP ratio to DMSO [96]: 0.857 (inactive)

— PubChem BioAssay AID504473 (NMMLSC, 2011)
